The conditions of data set [1]: intravenous and oral formulations; cited from earlier work.
In data set [2] the target is T1, RAD51 (Homo sapiens, UniProt Q06609).
T1 construct: purchased Abcam
The data set is described as follows: RAD51 ssDNA binding, fluorescence polarization. The data set is classed as biochemical. Particulars: 5 or 10 μM, ATP and Alexa Fluor 488 DNA. The procedure:
Reactions were performed in black 96-well plates (Greiner) in 50 μL reaction volumes in 20 mM HEPES pH 7.5, 10 mM MgCl2, 0.25 μM BSA, 2% glycerol, 30 mM NaCl and 4% DMSO. […] 2 mM ATP and 100 nM 5′-Alexa Fluor 488 ssDNA poly-dT (Integrated DNA technologies) were added to the reaction and incubated for 90 min at 37° C. DNA binding was measured using fluorescence polarization (FP) on a Tecan Spark 20M (ex/em 480 nm/535 nm). Compound fluorescence quenching was detected as above in the absence of RAD51 protein.

For data set [3], the system named is MDA-MB-231 and MDA-MB-468 cells. The data set is described as follows: Western blot of cell cycle and apoptosis proteins. In kind it is cell-based. Particulars: 5 μM, 24 hr. The method, then:
(§1) Western blotting was performed. 20-60 μg of total lysates per lane were loaded on 7%, 10%, or 12% SDS-PAGE and transferred onto nitrocellulose or polyvinylidene difluoride membranes (Bio-Rad). The membranes were probed with primary antibodies against caspase-3, multi-drug resistance protein-1 (MRP1), poly [ADP ribose] polymerase-1 (PARP-1), ubiquitin, RelA; cyclin D1, p21, caspase-9, MRP4, IKKβ, pIKKβ, IκBα, or pIκBα (Cell Signaling); caspase-8 (R&D Systems). Samples were normalized to β-actin (Sigma-Aldrich) or GAPDH (Trevigen).

For data set [4], the system named is MCF-10A cells. The data set is described as follows: Western blot of cell cycle and apoptosis proteins. The data set is classed as cell-based. Particulars: 5 μM, 24 hr. The procedure: as §1
(In general: Immunoblotting shows a protein as a band on a membrane.)

The subject of data set [5] is MDA-MB-231 and MDA-MB-468 cells. As to the kind of experiment: Boyden chamber cell migration. In kind it is cell-based. Particulars: 5 μM. The procedure:
MDA-MB-231 and MDA-MB-468 cells were subjected to cell migration analysis in Boyden chambers. The bottom of a 12-well membrane filter (BD Biosciences) was coated with 10 μg/mL fibronectin for 12 hr before each experiment. […] Cells were trypsinized and washed with migration media (DMEM containing 0.1% fatty acid-free BSA) to remove serum. Cells at a density of 10^5/well were then placed in the upper chamber with migration media containing the same pretreatment conditions. The cells were allowed to migrate towards the 5% FBS chemoattractant for 5 hr. Non-migrated cells from the top surface were removed with cotton swabs. Migrated cells were fixed with 4% paraformaldehyde (Electron Microscopy Sciences), then stained with 0.5% crystal violet (Sigma-Aldrich) for 15 min. Migrated cell density on the filters was observed by microscopy. The crystal violet on migrated cells was de-stained with 10% acetic acid, and the absorbance in individual filters was determined at […] nm. Images are representative of three individual experiments, and statistical comparison among treatments was determined by one-way analysis of variance followed by Tukey post-test.

Data set [6] deals with MDA-MB-231 cells. As to the kind of experiment: Cell cycle analysis with propidium iodide. The data set is classed as cell-based. Particulars: 5 μM NO2-OA versus DMSO. The procedure: Samples were analyzed at the Flow Cytometry Core at MWRI utilizing a BD LSRII (BD).
Data set [7] deals with NF-κB target genes. The data set is described as follows: qPCR / RT2 profiler array of NF-κB target genes. In kind it is cell-based, human. Particulars: 5 μM. The method, then:
Total RNA samples of tissues or cells were extracted using TRIZOL reagents according to the manufacturer's instructions (Invitrogen). Total RNA (1 μg) was reverse transcribed using the iScript cDNA kit (Bio-Rad) according to manufacturer instructions. cDNA (25 ng) was used for each subsequent quantitative real-time PCR (qRT-PCR) reaction. All qRT-PCR was performed on the StepOne PLUS PCR system (Thermo Fisher Scientific) using TaqMan gene expression assays. Fold change was calculated using the ΔΔCt method with 18S ribosomal RNA or human β-actin RNA serving as the internal control. Three individual experiments were done, and statistical significance was determined by one-way analysis of variance followed by Tukey post-test. […] The expression of 84 human NF-κB target genes was analyzed with 96-well plate format as instructed in the manufacturer's handbook (Qiagen). PCR amplification was conducted by StepOne PLUS PCR system and fold change of gene expression was calculated according to the manufacturer's instruction.

Data set [8] deals with T2, RAD51-ABL complex (Homo sapiens, UniProt Q06609).
T2 construct: expressed in transfected cells; host or cells: HEK 293T
The data set is described as follows: FLAG-RAD51/ABL immunoprecipitation in 293T cells. The data set is classed as cell-based. Particulars: 0 to 5 μM, 1 h. The procedure: Cell lysates and immunoprecipitation were prepared. For immunoprecipitation analysis, one million HEK 293T cells were transiently transfected with Fugene 6 (Promega) and 2 μg pQCXIP (EV) or FLAG-RAD51 pQCXIP plasmids and precipitated with Anti-FLAG M2 Affinity Gel (Sigma).
Cys319 is located in the RAD51 C-terminus within one of the two ABL-SH3 binding domains (amino acids 283-286 and 318-321). […] ABL regulates RAD51 activity via sequential phosphorylation of RAD51 Tyr54 and then Tyr315.

In data set [9] the test system is MDA-MB-231 orthotopic tumor. As to the kind of experiment: Orthotopic MDA-MB-231 tumor model, 15 mg/kg gavage. The data set is classed as in vivo, mice. The method, then: Animals used for this study were approved by and conducted according to the guidelines of the University of Pittsburgh IACUC. MDA-MB-231 cells (0.5×106) were injected into the mammary fat pad (left 4th gland) of 6-wk-old female nude mice in a volume of 20 μL sterile saline. When tumors reached an average volume of 100 mm^3, mice were treated with OA+vehicle (n=8), OA-NO2+vehicle (n=7), OA+talazoparib (0.3 mg/kg) (n=10) or OA-NO2 (15 mg/kg)+talazoparib (n=11). Tumor volume was measured by caliper over time in P-values: *<0.01, ***<0.001, ****<0.0001. The surgical procedure has been previously described.
Whether NO2-OA could also enhance TNBC DNA damage in vivo was also assessed. […] (FIG. 1B). […] This response became statistically significant after Grubbs outlier detection and elimination of OA treated mouse #2. The orthotopic tumor in OA mouse #2 was the largest tumor in the study, with necrosis potentially causing enhanced γH2AX levels.

Structures are written as SMILES.

T2 sequence (Q06609 whole entry, one chain of several): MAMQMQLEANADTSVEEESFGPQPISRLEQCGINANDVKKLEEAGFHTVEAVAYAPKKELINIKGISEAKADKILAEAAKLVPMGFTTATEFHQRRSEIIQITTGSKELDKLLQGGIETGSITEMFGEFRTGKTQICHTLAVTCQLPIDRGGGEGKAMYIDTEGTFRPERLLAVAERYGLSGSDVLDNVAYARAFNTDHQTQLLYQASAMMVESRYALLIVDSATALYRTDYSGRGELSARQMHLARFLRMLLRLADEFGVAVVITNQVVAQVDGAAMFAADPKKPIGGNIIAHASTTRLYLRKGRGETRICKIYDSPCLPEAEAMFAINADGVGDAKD
T1 sequence (Q06609 whole entry): as the sequence (Q06609 whole entry, one chain of several) above

For `CCCCCCCCC(=CCCCCCCCC(=O)O)[N+](=O)[O-]` [NO2-OA, 10-nitro-octadec-9-enoic acid], the clinical safety entry in data set [1] is given as “safe”. Further, the “relative fluorescence polarization of RAD51 with ssDNA” value in [2] is recorded as “decreased the relative polarization of RAD51”. In data set [3], the PARP-1 cleavage entry is “promoted caspase-3-mediated cleavage of PARP-1”; the “caspase-8 and caspase-9 cleavage” value was “increased cleavage of caspase-8 and caspase-9”; the “p21 and cyclin D1 protein expression” value is “an increase in p21 and a decrease in cyclin D1 protein expression”. Further, in data set [4], the PARP-1 cleavage entry is recorded as “but not in MCF-10A cells”. Besides, the “basal, non-stimulated migration” value in [5] is given as “modestly inhibited”. Besides, the TNFα-induced cell migration entry in data set [5] (TNFα 20 ng/mL) is reported as “significantly inhibited”. Besides, the cell cycle changes result in data set [6] is “no significant changes to the cell cycle occurred”. In data set [7] (MDA-MB-231 or MDA-MB-468 cells, TNFα 20 ng/mL), the “TNFα-induced expression of ICAM-1 and uPA genes” value is “suppression of TNFα-induced expression of ICAM-1 and uPA genes”. In [7] (MDA-MB-468 cells, 24 hr), the “mRNA expression of NF-κB target genes (PCR array)” value is recorded as “decreased the mRNA expression of multiple NF-κB target genes”. In addition, in [8], the “ABL bound to RAD51” value was “decreased the amount of ABL bound to RAD51” and the “RAD51 Tyr315 phosphorylation” value was “inhibited”. Also, in data set [9] (15 mg/kg by gavage for 4 wk, versus OA), the “tumor γH2AX level by immunoblot” value is on record as “higher levels of γH2AX”. Further, the tumor growth rate result in [9] (15 mg/kg by gavage for 4 wk, versus OA treated controls) is given as “significantly decreased tumor growth rates”. Further, in [9] (NO2-OA 15 mg/kg + talazoparib 0.3 mg/kg versus either alone), the “tumor reduction / tumor volume in combination with talazoparib” value is reported as “significant greater tumor reduction compared to talazoparib or NO2-OA alone”.

The values are drawn from US12390435B2, “Electrophiles and electrophile pro-drugs as RAD51 inhibitors” (University of Pittsburgh—Of the Commonwealth System of …, priority 2018, dated 2025).
